Assay results taken from patent publication US5814634A, “Alkylenediamine derivative anti-ulcer drug and antibacterial drug” (Shiseido Co. Ltd., priority 1996, dated 1998).

Experiments:
gastric mucosa = assay: PD: Gastric Mucosal Integrity Test (gastric mucosal potential difference); assay type: in vivo, rat (male Crj:SD); design: key: 5: Same as the control with no recognizable damage at all.; 4: Though a slight PD-decreasing tendency suggesting a slight possibility of mucosal damage is found, there is no problem.; 3: Though a weak decrease in PD and a possibility of a weak mucosal damage is recognized, there is no substantial problem.; 2: Medium degree of decrease in PD is found and a mucosal damage is recognized.; 1: Heavy degree of decrease in PD is found and a remarkable mucosal damage is recognized; settings: 100 mg/kg into chamber, rats, 60 minutes
Method: PD: Gastric Mucosal Integrity Test
In this case, since the sample compound has a necrotizing effect, it is inappropriate as an anti-ulcer medicament.
Therefore, the gastric mucosal potential difference (PD), which reflects the integrity of the gastric mucosa, is measured so as to confirm that the sample compound has no damaging effect on gastric mucosa, which is toxicity at gastric mucosal level.
Male Crj:SD rats (7 to 8-week-old) were fasted overnight, but allowed free access to water, and then, under urethane anesthesia (1.25 g/kg, i.p.), fixed to a cork board on its back. The abdomen of each rat was incised, and a small incision was made in the forestomach. Then, the inside of the stomach was washed with physiological saline heated at 37° C. From the forestomach, along the greater curvature thereof, the stomach was incised without damaging blood vessels. After the height of the cork board was adjusted on a jack, the stomach was mounted on ex vivo chamber. The area of the gastric mucosa exposed to the inside of this chamber was 2.5 cm^2. The inside of the chamber was perfused with physiological saline warmed at 37° C. by micro tube pump. By using an agar bridge containing 3M KCl, the potential difference between the chamber and the abdominal cavity was measured by a PD meter. Here, the rectal temperature was measured to control the body temperature during the experiment. After the PD was sufficiently stabilized, the perfusate was stopped and then 100 mg/10 ml/kg of the sample compound dissolved or suspended in an aqueous solution of 0.5% sodium carboxymethyl cellulose or 0.05% Tween 80 was administered into the chamber, while PD was recorded for 60 minutes. To a control, the vehicle was administered.
The change in PD during 60 minutes after the administration of 100 mg/kg of the sample compound was collectively studied and, with reference to the positive control, classified into 5 levels as follows:
5: Same as the control with no recognizable damage at all.
3: Though a weak decrease in PD and a possibility of a weak mucosal damage is recognized, there is no substantial problem.
2: Medium degree of decrease in PD is found and a mucosal damage is recognized.
1: Heavy degree of decrease in PD is found and a remarkable mucosal damage is recognized.

in vitro = settings: rabbit, gastric mucosal cells
[1] = tested on: isolated gastric fundic gland; assay: CAP: Acid Secretion Inhibition Test In Vitro ([14C]-aminopyrine uptake); assay type: cell-based, rabbit (male Japanese White); settings: Oryctolagus cuniculus, 40 min; 10^-5 M compound, 10^-5 M histamine, rabbit isolated gastric fundic gland, 37° C., 40 minutes; read-out: CAP: acid secretion inhibitory rate
Procedure, shortened: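 Fundic gland suspension (1.6×10^6 cells/ml in HEPES nutrient buffer) was stimulated with histamine 10^-5 M plus test compound 10^-5 M (final) and [14C]-aminopyrine 0.05 μCi/ml, then shaken 40 min at 37 °C. Pellet and supernatant were scintillation-counted to give the NaSCN-corrected specific aminopyrine accumulation ratio, in duplicate.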

Row | SMILES | PD: change in gastric mucosal potential difference, 5 levels (gastric mucosa) | cytotoxicity at 4 h, 100 µM (in vitro) | inhibition at 10 µM [1]
1 | CC(C)=CCC/C(C)=C/COc1ccc(C(=O)NCCN2CCOCC2)cc1 [Example 31] | 3 | 15% | 99%
2 | CC(C)=CCOc1ccc(C(=O)NCCN2CCOCC2)cc1OCC=C(C)C [Example 35] | 5 | -17% | 100%
3 | CC(C)=CCOc1ccc(C(=O)NCCN2CCOCC2)cc1 [Example 28] | 5 | -39% | 88%
